Assay results from patent US7951826B2, “Pyrrolidine derivatives as histamine H3 receptor antagonists” (Eli Lilly and Company, priority 2005, dated 2011).
pKi: −log10 of the molar value.

Biological target: T1, H3R membranes (H3R8-expressing HEK293 cell line) (Homo sapiens, UniProt Q9Y5N1)
T1 construct: expressed in transfected cells; pcDNA3.1(+) vector, G418 selection)
Test: [35S] GTP gamma [S] binding assay
Format: biochemical
Conditions: inhibition of [35S]GTP gamma S binding to H3R membranes in presence of agonist R(-)alpha methylhistamine
Method: Membranes isolated as described in (Preparation of Histamine Receptor Subtype Membranes) are used in a [35S]GTPχS functional assay. Binding of [35S]GTPχS to membranes indicates agonist activity. Compounds of the invention of Formula I or Formula II are tested for their ability to inhibit binding in the presence of agonists. Alternately, the same transfected cell lines are used for a cAMP assay wherein H3R agonists inhibit forskolin-activated synthesis of cAMP. Compounds of Formula I or Formula II are tested for their ability to permit forskolin-stimulated cAMP synthesis in the presence of agonist.
cDNA for the human histamine 3 receptor is cloned and expressed as described in (A. Preparation H1R membranes), above. Transfected cells are selected using G418 ([…]), grown, and tested for histamine binding by the SPA described above. For total binding, cells are assayed in a SPA reaction described above containing 50 mM Tris-HCL (assay buffer), pH 7.6, 1 mg wheat germ agglutinin SPA beads (Amersham Pharmacia Biotech, #RPNQ0001), and 1 nM (^3H)-n-alpha-methylhistamine (NEN, NET1027) (total volume per well=200 μl). Thioperimide is added to determine non-specific binding. […]
Antagonist activity of selected compounds is tested for inhibition of [35S] […] Plates are counted in Wallac Trilux 1450 Microbeta scintillation counter for 1 minute. […]

T1 sequence (Q9Y5N1 whole entry): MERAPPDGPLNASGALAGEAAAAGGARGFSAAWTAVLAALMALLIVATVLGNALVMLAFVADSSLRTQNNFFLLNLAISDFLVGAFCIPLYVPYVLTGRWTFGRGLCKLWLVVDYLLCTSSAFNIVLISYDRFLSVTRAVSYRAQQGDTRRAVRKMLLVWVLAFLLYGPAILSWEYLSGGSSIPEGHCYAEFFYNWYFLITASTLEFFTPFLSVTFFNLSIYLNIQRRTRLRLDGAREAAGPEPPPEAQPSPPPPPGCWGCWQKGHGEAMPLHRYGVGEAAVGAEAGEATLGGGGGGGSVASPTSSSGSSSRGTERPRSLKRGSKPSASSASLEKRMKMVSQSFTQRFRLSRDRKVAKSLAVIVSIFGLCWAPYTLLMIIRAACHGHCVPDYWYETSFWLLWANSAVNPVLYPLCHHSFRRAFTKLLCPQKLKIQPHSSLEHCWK

| pKi | SMILES |
| --- | --- |
| 7.13 | COc1ccc(C(=O)N2CCC[C@H]2CN2CCCC2)cc1 |
| 6.84 | CCCCOc1ccc(C(=O)N2CCC[C@@H]2CN2CCCC2)cc1 |
